Laboratory results published in patent EP0194548A2, “Sulfonylaminoethyl compounds, medicines containing these compounds and process for their preparation” (Dr. Karl Thomae GmbH, priority 1985, dated 1986).

What was measured:
[1] = system: Thrombozytenaggregation in plättchenreichem Plasma; experiment: Collagen-induced platelet aggregation (method of BORN and GROSS) in platelet-rich plasma; format: cell-based, Versuchspersonen; conditions: 10 min, plasma incubated 10 min with substance at 37°C, 50% change of optical density
Excerpt: Die Thrombozytenaggregation wird nach der Methode von BORN und GROSS (J. Physiol. 170, 397 (1964)) in plättchenreichem Plasma gesunder Versuchspersonen gemessen. Zur Gerinnungshemmung wird das Blut mit […] 3,14 % im Volumenverhältnis 1:10 versetzt
Collagen-induzierte Aggregation
Der Verlauf der Abnahme der optischen Dichte der Plättchensuspension wird nach Zugabe der aggregationsauslösenden Substanz photometrisch gemessen und registriert. Aus dem Neigungswinkel der Dichtekurve wird auf die Aggregationsgeschwindigkeit geschlossen. Der Punkt der Kurve, bei dem die größte Lichtdurchlässigkeit vorliegt, dient zur Berechnung der "optical dens^ity".
Die Collagen-Menge wird möglichst gering gewählt, aber doch so, daß sich eine irreversibel verlaufende Reaktionskurve ergibt. Verwendet wird das handelsübliche Collagen der Firma Hormonchemie, München.
Vor der Collagen-Zugabe wird das Plasma jeweils 10 Minuten mit der Substanz bei 37°C inkubiert.
Aus den erhaltenen Meßzahlen wird graphisch eine EC50 berechnet, die sich auf eine 50%ige Änderung der "optical density" im Sinne einer Aggregationshemmung bezieht.

Mäusen [2] = experiment: Prolongation of bleeding time (tail tip cut) after oral dosing; format: in vivo; conditions: conscious mice, 10 mg/kg p.o., 1 hour after dosing, 5 animals per test, versus controls without substance
Method: Da im Falle einer Verletzung die erste rasche Blutstillung durch Thrombozyten geschieht, läßt sich beim Setzen einer standardisierten Verletzung die Funktion der Thrombozylen mit Hilfe der Messung der Blutungszeit gut bestimmen. Die normale Blutungszeit beträgt beim Menschen etwa 1 bis 3 min., setzt aber leistungsfähige und in genügender Zahl vorhandene Thrombozyten voraus. Bei einer normalen Thrombozytenzahl weist also eine verlängerte Blutungszeit auf eine gestörte Funktion der Thrombozyten hin. Wir finden dies z.B. bei einigen angeborenen Thrombozytenfunktionsstörungen. Will man auf der anderen Seite die Neigung zu spontanem Zusammenballen der Thrombozyten mit der Folge von Gefäßverschlüssen im arteriellen System durch Medikamente verhindern, so muß folglich bei einer erfolgreichen thrombozytenwirksamen Therapie die Blutungszeit unter Substanzeinfluß verlängert werden. Bei einer thrombozytenwirksamen Substanz ist also eine Verlängerung der Blutungszeit und - da das plasmatische Gerinnungssystem ja nicht berührt wird -eine normale Blutgerinnungszeit zu erwarten.
Zur Bestimmung der Blutungszeit wurden die zu untersuchenden Substanzen wachen Mäusen in einer Dosis von 10 mg/kg p.o. appliziert. Nach einer Stunde wurde von der Schwanzspitze jedes Tieres ca. 0,5 mm abgeschnitten und das austretende Blut in Abständen von 30 Sekunden bis zum Sistieren der Blutung vorsichtig mit einem Filterpapier abgetupft. Die Zahl der so erhaltenen Bluttropfen ergibt ein Maß für die Blutungszeit (5 Tiere pro Versuch). Die folgenden Zahlenangaben bedeuten Prozent-Verlängerung gegenüber Kontrollen ohne Substanzgabe: […]

Mäusen [3] = experiment: Orientating acute toxicity after a single oral dose; format: in vivo; conditions: mice, groups of 10, observation time 14 days
Excerpt: Die akute Toxizität der zu untersuchenden Substanzen wurde orientierend an Gruppen von je 10 Mäusen nach oraler Gabe einer Einzeldosis bestimmt (Beobachtungszeit 14 Tage): […]

O=C(O)CCC(=O)c1ccc(CCNS(=O)(=O)c2ccc(Cl)cc2)cc1 [Substanz A, 3-[4-(2-(4-Chlorbenzolsulfonyl)-aminoäthyl)-benzoyl]-propionsäure]
EC50 [1]: 4 µM
Verlängerung der Blutungszeit in % nach 1 Stunde (Mäusen [2]): 108%
Orientierende akute Toxizität (Mäusen [3]; single oral dose 1.000 mg): 1.000 mg (0 von 10 Tieren gestorben)

COCCOC(=O)CCC(=O)c1ccc(CCNS(=O)(=O)c2ccccc2)cc1 [Substanz B, 3-[4-(2-Benzolsulfonylaminoäthyl)-benzoyl]-propionsäure-ß-methoxyäthylester]
EC50 [1]: > 10 µM
Verlängerung der Blutungszeit in % nach 1 Stunde (Mäusen [2]): 110%
Orientierende akute Toxizität (Mäusen [3]; single oral dose 1.000 mg): 1.000 mg (0 von 10 Tieren gestorben)

O=C1CCC(c2ccc(CCNS(=O)(=O)c3ccccc3)cc2)=NN1 [Substanz C, 6-[4-(2-Benzoylsulfonylaminoäthyl)-phenyl]-4,5-dihydro-pyridazin-(2H)-3-on]
EC50 [1]: 3.3 µM
Verlängerung der Blutungszeit in % nach 1 Stunde (Mäusen [2]): 145%
Orientierende akute Toxizität (Mäusen [3]; single oral dose 1.000 mg): 1.000 mg (0 von 10 Tieren gestorben)

Cc1ccc(S(=O)(=O)NCCc2ccc(C3=NNC(=O)CC3C)cc2)cc1 (stereo not drawn) [Substanz D, 6-[4-(2-(p-Toluolsulfonyl)-aminoäthyl)-phenyl]-5-methyl-4,5-dihydro-pyridazin-(2H)-3-on]
EC50 [1]: 2.4 µM
Verlängerung der Blutungszeit in % nach 1 Stunde (Mäusen [2]): 187%
Orientierende akute Toxizität (Mäusen [3]; single oral dose 1.000 mg): 1.000 mg (0 von 10 Tieren gestorben)

O=C1CCC(c2ccc(OCCNS(=O)(=O)c3ccccc3)cc2)=NN1 [Substanz E, 6-[4-(2-Benzolsulfonylaminoäthoxy)-phenyl]-4,5-dihydro-pyridazin-(2H)-3-on]
EC50 [1]: 3 µM
Verlängerung der Blutungszeit in % nach 1 Stunde (Mäusen [2]): 233%
Orientierende akute Toxizität (Mäusen [3]; single oral dose 1.000 mg): 1.000 mg (0 von 10 Tieren gestorben)

O=C(O)CCC(=O)c1ccc(CCNS(=O)(=O)c2ccccc2)cc1 [Substanz F, 3-[4-(2-Benzolsulfonylamino-äthyl)-benzoyl]-propionsäure]
EC50 [1]: 3 µM
Verlängerung der Blutungszeit in % nach 1 Stunde (Mäusen [2]): >266%
Orientierende akute Toxizität (Mäusen [3]; single oral dose 250 mg): 250 mg (0 von 10 Tieren gestorben)
